The values below come from ChEMBL document CHEMBL3886674, “Aminopyrimidine derivatives for use as modulators of kinase activity” (2016).

For this assay, the target named is Ribosomal protein S6 kinase beta-1 (Homo sapiens, UniProt P23443, T412E). The assay can be described thus: Enzyme Assay: P70S6K inhibitor compounds were diluted and plated in 96 well plates. A reaction mixture including the following components was then added to the compound plate to initiate the enzyme reaction; P70S6K (3 nM, T412E mutant, Millipore) was mixed with 24 μM ATP in an assay buffer containing 100 mM Hepes (pH 7.5), 5 mM MgCl2, 1 mM DTT, 0.015% Brij and 1 μM of the substrate peptide FITC-AHA-AKRRRLSSLRA-OH (derived from the S6 ribosomal protein sequence, FITC=fluorescein isothiocyanate, AHA=6-aminohexanoic acid). The reaction was incubated for 90 min at 25° C., before the addition of 10 mM EDTA to stop the reaction.
Chain of Ribosomal protein S6 kinase beta-1 (P23443 whole entry T412E): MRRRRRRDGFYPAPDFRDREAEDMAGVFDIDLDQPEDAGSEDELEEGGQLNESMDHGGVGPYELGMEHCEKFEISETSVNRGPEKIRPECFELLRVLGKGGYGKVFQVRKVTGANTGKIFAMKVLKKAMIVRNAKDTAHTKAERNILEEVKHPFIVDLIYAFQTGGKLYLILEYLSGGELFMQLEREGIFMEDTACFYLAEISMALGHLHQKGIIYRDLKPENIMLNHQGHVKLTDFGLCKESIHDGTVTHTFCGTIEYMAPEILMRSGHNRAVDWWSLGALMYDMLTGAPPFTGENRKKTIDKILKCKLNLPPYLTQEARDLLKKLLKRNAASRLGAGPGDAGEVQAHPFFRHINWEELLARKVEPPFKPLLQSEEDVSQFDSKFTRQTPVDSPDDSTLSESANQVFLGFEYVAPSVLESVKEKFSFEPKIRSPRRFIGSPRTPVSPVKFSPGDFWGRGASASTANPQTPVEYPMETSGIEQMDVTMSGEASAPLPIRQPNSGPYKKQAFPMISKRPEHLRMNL

Consider `Nc1ncnc(N2CCC(C(N)c3ccc(Cl)cc3)CC2)c1-c1ccc(F)cc1` (stereo not drawn), for which the IC50 worked out at 13 nM.

`Nc1ncnc(N2CCC(C(N)c3ccc(-c4ccc(F)cc4)cc3)CC2)c1-c1ccc(F)cc1` (stereo not drawn): the IC50 was determined as 17 nM.

For the compound `Nc1ncnc(N2CCC(C(N)c3ccc(F)cc3)CC2)c1-c1ccc(F)cc1` (stereo not drawn), the IC50 amounted to 27 nM.
